Experimental data taken from PubChem BioAssay (NCI).
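Five concentrations, 48 hours, 96-well plates. TGI marks complete inhibition of growth.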

Experiments:
Test in all cases: NCI-60 cell line screen, 48 h
CAKI-1 renal = tested on: CAKI-1 renal
SW-620 colon = tested on: SW-620 colon
MDA-MB-435 = tested on: MDA-MB-435
RPMI-8226 leukemia = tested on: RPMI-8226 leukemia
A549 NSCLC = tested on: A549 NSCLC
SF-295 CNS = tested on: SF-295 CNS
786-0 renal = tested on: 786-0 renal
EKVX NSCLC = tested on: EKVX NSCLC
OVCAR-5 ovarian = tested on: OVCAR-5 ovarian
DU-145 prostate = tested on: DU-145 prostate
MDA-MB-231 breast = tested on: MDA-MB-231 breast

SMILES	TGI (CAKI-1 renal) [µM]	TGI (SW-620 colon) [µM]	TGI (MDA-MB-435) [µM]	TGI (RPMI-8226 leukemia) [µM]	TGI (A549 NSCLC) [µM]	TGI (SF-295 CNS) [µM]	TGI (786-0 renal) [µM]	TGI (EKVX NSCLC) [µM]	TGI (OVCAR-5 ovarian) [µM]	TGI (DU-145 prostate) [µM]	TGI (MDA-MB-231 breast) [µM]
O=C(/C=C/C=C/c1ccccc1)c1ccc2c(c1)CCCC2	> 100	> 100	40.8	> 100	> 100	> 100	> 100	> 100	> 100	92.3	> 100
COC(=O)C1(OC(=O)Sc2ccccc2)CCN(C)CC1	27.8	54.9	36.3	35	> 100	> 59.5	50.3	> 84.6	> 69.6	> 100	59
O=C(NCCCN(CCCCN(CCCNC(=O)C(F)(F)F)CCCc1ccccc1)CCCc1ccccc1)C(F)(F)F	3.69	3.93	3.35	7.97	3.73	3.3	2.86	4.23	25.9	3.99	3.11
O=C(CCc1cc(O)cc(O)c1)NCCc1cc(O)cc(O)c1	> 100	> 100	> 100	> 100	> 100	> 100	> 100	> 100	> 100	> 100	> 100
Nc1nc2c(ncn2Cc2ccc(CO)cc2)c(=O)[nH]1	> 100	> 100	> 100	> 100	> 100	> 100	> 100	> 100	> 100	> 100	> 100
CN(CCN(C)C(=S)NN)C(=S)NN	> 100	> 100	> 100	> 100	> 100	> 100	> 100	> 100	> 100	> 100	> 100
CN(C)/C=N/n1c2ccccc2c2ccccc21	75.8	> 100	> 100	> 100	> 100	> 100	> 100	> 100	> 100	> 100	> 100
O=S(=O)(O)c1ccc(N=Nc2ccc(N=Nc3c(O)ccc4ccccc34)cc2)cc1	> 100	> 100	> 100	> 100	> 100	> 100	> 100	> 100	> 100	> 100	> 100
COc1ccc(/C=N/n2c(-c3ccccc3)n[nH]c2=O)cc1	> 100	> 100	> 100	> 100	> 100	> 100	> 100	> 100	> 100	> 100	> 100
CC(NNC(=O)CC(=O)N(C(=O)c1ccccc1)c1ccc(Cl)cc1)c1cc2ccccc2oc1=O (stereo unspecified)	> 10	> 10	> 10	> 10	> 10	> 10	> 10	> 10	> 10	> 10	> 10
CN1CCN(CN2C(=O)C3C4C=CC(C3C2=O)C2C(=O)N(CN3CCN(C)CC3)C(=O)C42)CC1 (stereo unspecified)	> 100	7.58	> 100	51.4	–	> 100	97.7	> 100	> 100	> 31.6	> 100
CC(/C=N\NC(=S)N1CCCCC1)=N/NC(=S)N1CCCCC1	10.7	14.7	17.5	> 100	18.5	14.4	13.2	14.8	21.8	4.58	11.1
C[C@H]1C2Cc3cc(N)ccc3[C@@]1(C)CCN2CCc1ccccc1	> 100	> 100	> 100	> 100	> 100	98.8	> 100	> 100	> 100	> 100	> 100
CC(=O)Nc1ccc(-c2nc3ccccc3s2)cc1	53.8	> 100	> 100	> 100	–	> 100	64.8	> 100	–	40.1	96.1
C[C@@H]1C[C@](O)([C@@H](C)Cl)C(=O)O[C@@H]2CCN3CC=C(COC(=O)[C@]1(C)O)[C@H]23	> 100	> 100	> 100	> 100	> 100	> 100	> 100	> 100	> 100	> 100	> 100
CC(C)C1=C(Cc2ccccc2)C(=O)O/C1=C\c1cc(Cl)c(O)c(Cl)c1	29.9	44.6	35.4	65.6	50.5	30.8	32.1	65.1	43.7	30.3	33.8
Oc1ccc(-c2nc(-c3ccc(F)cc3)c(-c3ccc4ccccc4n3)[nH]2)cc1	31.3	29.1	29.6	> 100	27	24	66	40.7	39.8	34.8	41.4
O=C1NN=C2C=C(c3ccc(Cl)cc3)CC(c3cccc(Cl)c3)C12 (stereo unspecified)	> 100	> 100	40.2	57	37.2	38.4	62.8	64.7	75.7	> 100	42.7
O=C1C[C@H]2[C@@H](O1)[C@@H](O)CN1C(=O)c3ccccc3[C@H]21	> 100	> 100	> 100	> 100	> 100	> 100	> 100	> 100	> 100	> 100	> 100
CCOC(=O)c1ccc(C(=O)/C(C#N)=C2\CCCN2C)[nH]1	> 100	> 100	> 100	> 100	> 100	> 100	> 100	> 100	> 100	> 100	> 100

SMILES	TGI (CAKI-1 renal) [µM]	TGI (SW-620 colon) [µM]	TGI (MDA-MB-435) [µM]	TGI (RPMI-8226 leukemia) [µM]	TGI (A549 NSCLC) [µM]	TGI (SF-295 CNS) [µM]	TGI (786-0 renal) [µM]	TGI (EKVX NSCLC) [µM]	TGI (OVCAR-5 ovarian) [µM]	TGI (DU-145 prostate) [µM]	TGI (MDA-MB-231 breast) [µM]
O=[N+]([O-])c1ccc(S(=O)(=O)N=Ic2ccccc2)cc1	> 100	> 100	> 100	> 100	> 100	> 100	> 100	> 100	> 100	> 100	> 100
CC(=O)OC1O[C@@H](C(C)(C)O)CC[C@@H]1[C@H]1CC[C@@]2(C)C3=C(CC[C@]12C)[C@@]1(C)C[C@@H](OC(=O)CC(C)(O)CC(=O)O)[C@H](OC(C)=O)C(C)(C)C1CC3 (stereo partly specified)	29.4	37.4	31.4	53.8	30.9	32.4	33.9	35.3	32.2	33.2	45.5
NCCCNCCCCNCCCN	11.6	14	> 68.2	1.59	> 100	> 100	2.79	38.6	> 100	23.2	> 60.8
CCOP(=O)(O)C(C)(C)NC	–	> 100	> 100	> 100	> 100	> 100	> 100	> 100	> 100	> 100	> 100
COc1ccc(OC)c(C2Cc3cnc4nc(N)nc(N)c4c3C2)c1 (stereo unspecified)	> 100	> 100	65	94.7	> 100	93.7	89.9	> 100	97.1	55.7	52.6
O=[N+]([O-])c1cc2c(c3nonc13)OCCCCO2	34.3	20.7	17.9	16.3	33.5	31.6	10.7	38.5	26.2	28.2	12.1
C#CCN(CC#C)C(=O)C(=O)c1c[nH]c2ccc(OC)cc12	–	41.2	35.4	22.4	68.5	32.5	31	> 100	48	> 100	31
Cn1c(N)c2c3c(sc2nc1=O)CCCC3	> 75	> 75	> 75	> 75	–	> 75	> 75	> 75	> 75	> 75	> 75
COc1ccc(C(OC(C)=O)C2C(=C(C#N)C#N)c3ccccc3C2=C(C#N)C#N)cc1 (stereo unspecified)	> 100	> 100	> 100	60.4	–	64.6	> 100	> 100	38.3	> 100	> 100
CCO/C=N/NC(=O)CSc1nc2ccc(I)cc2c(=O)n1Cc1ccccc1	> 100	> 100	> 100	> 100	> 100	> 100	> 100	> 100	> 100	> 100	> 100
CCOC(=O)c1cc(C2(O)CCN(CC(C)CC)C2=O)c(-c2cc(C)no2)[nH]1 (stereo unspecified)	> 100	> 100	> 100	> 100	> 100	> 100	> 100	> 100	> 100	> 100	> 100
CCc1nc2ccc(N=NN(C)C)cc2[nH]1	> 100	> 100	> 100	> 100	> 100	–	> 100	> 100	> 100	> 100	> 100
COc1ccc(C(OCC2OC(n3cc(C)c(=O)[nH]c3=O)CC2n2cc(Cn3cc(Br)c(=O)[nH]c3=O)nn2)(c2ccccc2)c2ccccc2)cc1 (stereo unspecified)	> 100	> 100	> 100	> 100	> 100	> 100	> 100	> 100	> 100	> 100	> 100
C[C@@]12CCC3C1C=C1C(=O)c4cc(O)ccc4C(=O)[C@]1(O2)[C@@]3(C)C=O	13.7	12.9	11.3	9.01	27.2	22	14.5	22.5	26.3	11.3	19.3
CC1(C)OC2C(O)CN3CCS[C@H]3C2O1 (stereo partly specified)	> 100	> 100	> 100	> 100	> 100	> 100	> 100	> 100	> 100	> 100	> 100
CC(=O)Nc1ccc(-c2nc3cc(Cl)ccc3o2)cc1	> 50	> 50	> 50	> 50	> 50	> 50	> 50	> 50	> 50	> 50	> 50
N#C/C(N)=C(\C#N)NC=NCc1ccccc1	> 100	> 100	> 100	> 100	> 100	> 100	> 100	> 100	> 100	> 100	> 100
CCCCCC(/C=C/C1CCC(=O)C1CC#C[Si](C)(C)C)OCc1ccccc1 (stereo unspecified)	36.8	> 57	41.7	44.3	70.7	39.8	28.3	39.8	39.5	> 87.5	54.4
Cc1cc(C)nc(NS(=O)(=O)c2ccc(NNC(=O)c3cccc4c(=O)c5ccccc5[nH]c34)cc2)n1	> 100	> 100	> 100	> 100	> 100	> 100	> 100	98.9	> 100	> 100	> 100
Cc1c(O)c(C)c2c(C)cn(C(=O)C(C)(C)C)c2c1C	–	74.4	30.3	84.5	64.7	32.9	36.3	49.7	83	43.9	28.5
